Data on 24 compounds can be found in patent US11208400B2, “Substituted 6-(1H-pyrazol-1-yl)pyrimidin-4-amine derivatives and uses thereof” (Bayer Aktiengesellschaft, priority 2016, dated 2021).

Structures are written as SMILES.

The target of this experiment is T1, human Npt2a (Homo sapiens, UniProt Q06495).
T1 construct: expressed in transfected cells
T1 sequence (Q06495 1-639): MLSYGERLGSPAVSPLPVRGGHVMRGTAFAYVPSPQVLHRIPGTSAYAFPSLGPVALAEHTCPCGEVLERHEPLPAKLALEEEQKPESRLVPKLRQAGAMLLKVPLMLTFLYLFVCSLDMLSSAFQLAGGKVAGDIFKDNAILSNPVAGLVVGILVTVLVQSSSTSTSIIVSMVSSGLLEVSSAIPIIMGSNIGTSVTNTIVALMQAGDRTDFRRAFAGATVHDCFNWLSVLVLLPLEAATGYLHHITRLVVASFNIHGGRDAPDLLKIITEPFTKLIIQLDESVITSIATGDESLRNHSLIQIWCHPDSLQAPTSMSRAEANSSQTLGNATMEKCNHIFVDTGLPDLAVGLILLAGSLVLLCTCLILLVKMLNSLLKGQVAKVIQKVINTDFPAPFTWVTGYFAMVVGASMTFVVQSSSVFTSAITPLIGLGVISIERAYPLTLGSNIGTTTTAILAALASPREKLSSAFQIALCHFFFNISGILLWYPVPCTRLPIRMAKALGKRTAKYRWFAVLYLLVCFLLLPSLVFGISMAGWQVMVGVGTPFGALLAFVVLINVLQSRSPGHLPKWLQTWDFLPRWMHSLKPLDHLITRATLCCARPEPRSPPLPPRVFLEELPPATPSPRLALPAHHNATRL
Briefly: Npt2a activity cell based assay, membrane potential dye, CHO T-REx hNpt2a cells. The settings on record: doxycycline-induced, depolarization by sodium phosphate influx, average or median values if tested more than once. In a few lines:
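Cells were doxycycline-induced CHO T-REx hNpt2a, dye-loaded and pretreated 5 min at RT with 1 nM–50 μM compound in Na-free pH 7.4 buffer. IC50 was fit to the post/pre-trigger fluorescence ratio.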
The compound `CCc1c(Nc2cc(-n3nc(C)c(C)c3O)ncn2)n[nH]c1-c1ccc(F)cc1` [Example 34, 1-(6-{[4-ethyl-5-(4-fluorophenyl)-1H-pyrazol-3-yl]amino}pyrimidin-4-yl)-3,4-dimethyl-1H-pyrazol-5-ol] had a half-inhibitory concentration (IC50) of 1000 nM.
`CCc1nn(C)c(Nc2cc(-n3nc(C)cc3C)ncn2)c1-c1ccc(F)cc1` [Example 35, 6-(3,5-dimethyl-1H-pyrazol-1-yl)-N-[3-ethyl-4-(4-fluorophenyl)-1-methyl-1H-pyrazol-5-yl]pyrimidin-4-amine] returned a concentration for half-maximal inhibition (IC50) of 1400 nM.
Compound `Cc1cc(C)n(-c2cc(Nc3[nH]nc(-c4ccc(F)cc4)c3CC(F)(F)F)ncn2)n1` [Example 36, 6-(3,5-dimethyl-1H-pyrazol-1-yl)-N-[3-(4-fluorophenyl)-4-(2,2,2-trifluoroethyl)-1H-pyrazol-5-yl]pyrimidin-4-amine] had an IC50 of 1700 nM.
Turning to `CCc1c(Nc2cc(-n3ncc4c3CN(C(=O)OC(C)(C)C)C4)ncn2)n[nH]c1-c1ccc(F)cc1` [Example 37, tert-butyl 1-(6-{[4-ethyl-5-(4-fluorophenyl)-1H-pyrazol-3-yl]amino}pyrimidin-4-yl)-4,6-dihydropyrrolo[3,4-c]pyrazole-5(1H)-carboxylate], half-maximal inhibition (IC50) was put at 1700 nM.
As for `COCCc1c(Nc2cc(-n3nc(C)cc3C)ncn2)n[nH]c1-c1ccc(F)cc1` [Example 38, 6-(3,5-dimethyl-1H-pyrazol-1-yl)-N-[5-(4-fluorophenyl)-4-(2-methoxyethyl)-1H-pyrazol-3-yl]pyrimidin-4-amine], the half-inhibitory concentration (IC50) came out at 2350 nM.
Consider `CCOc1ccc(-c2n[nH]c(Nc3cc(-n4nc(C)cc4C)ncn3)c2Cl)cc1` [Example 39, N-[4-chloro-3-(4-ethoxyphenyl)-1H-pyrazol-5-yl]-6-(3,5-dimethyl-1H-pyrazol-1-yl)pyrimidin-4-amine], for which the half-inhibitory concentration (IC50) worked out at 3.2 nM.
`CCOC(=O)c1c(C)nn(-c2cc(Nc3nn(C)c(-c4ccc(F)cc4)c3CC)ncn2)c1C` [Example 40, ethyl 1-(6-{[4-ethyl-5-(4-fluorophenyl)-1-methyl-1H-pyrazol-3-yl]amino}pyrimidin-4-yl)-3,5-dimethyl-1H-pyrazole-4-carboxylate] showed an IC50 of 2760 nM.
For `Cc1cc(C)n(-c2cc(Nc3nn(C)c(-c4ccc(F)cc4)c3C3CC3)ncn2)n1` [Example 41, N-[4-cyclopropyl-5-(4-fluorophenyl)-1-methyl-1H-pyrazol-3-yl]-6-(3,5-dimethyl-1H-pyrazol-1-yl)pyrimidin-4-amine], the concentration for half-maximal inhibition (IC50) is 11 nM.
On to `Cc1nn(-c2cc(Nc3nn(C)c(-c4ccc(F)cc4)c3C3CC3)ncn2)c(C)c1Cl` [Example 42, 6-(4-chloro-3,5-dimethyl-1H-pyrazol-1-yl)-N-[4-cyclopropyl-5-(4-fluorophenyl)-1-methyl-1H-pyrazol-3-yl]pyrimidin-4-amine], for which the midpoint of inhibition, the IC50, lay at 7.67 nM.
As to `Cc1cc(C)n(-c2cc(Nc3c(C4CC4)c(-c4ccc(F)cc4)nn3C)ncn2)n1` [Example 43, N-[4-cyclopropyl-3-(4-fluorophenyl)-1-methyl-1H-pyrazol-5-yl]-6-(3,5-dimethyl-1H-pyrazol-1-yl)pyrimidin-4-amine], the midpoint of inhibition, the IC50, lay at 144 nM.
As for `Cc1nn(-c2cc(Nc3nn(C)c(-c4ccc(F)cc4)c3C3CC3)ncn2)c2ccccc12` [Example 44, N-[4-cyclopropyl-5-(4-fluorophenyl)-1-methyl-1H-pyrazol-3-yl]-6-(3-methyl-1H-indazol-1-yl)pyrimidin-4-amine], it took 5.35 nM to reach half-maximal inhibition (IC50).
`Cc1nn(-c2cc(Nc3c(C4CC4)c(-c4ccc(F)cc4)nn3C)ncn2)c(C)c1Cl` [Example 45, 6-(4-chloro-3,5-dimethyl-1H-pyrazol-1-yl)-N-[4-cyclopropyl-3-(4-fluorophenyl)-1-methyl-1H-pyrazol-5-yl]pyrimidin-4-amine] returned an IC50 of 29 nM.
Next, `CCc1c(Nc2cc(-n3nc4c(c3C)CCCC4)ncn2)nn(C)c1-c1ccc(F)cc1` [Example 46, N-[4-ethyl-5-(4-fluorophenyl)-1-methyl-1H-pyrazol-3-yl]-6-(3-methyl-4,5,6,7-tetrahydro-2H-indazol-2-yl)pyrimidin-4-amine]: 6.5 nM; `Cc1nn(-c2cc(Nc3c(C4CC4)c(-c4ccc(F)cc4)nn3C)ncn2)c2ccccc12` [Example 47, N-[4-cyclopropyl-3-(4-fluorophenyl)-1-methyl-1H-pyrazol-5-yl]-6-(3-methyl-1H-indazol-1-yl)pyrimidin-4-amine]: 89 nM; `Cc1nn(-c2cc(Nc3c(Cl)c(-c4ccc(F)cc4F)nn3C)ncn2)c(C)c1Cl` [Example 48, N-[4-chloro-3-(2,4-difluorophenyl)-1-methyl-1H-pyrazol-5-yl]-6-(4-chloro-3,5-dimethyl-1H-pyrazol-1-yl)pyrimidin-4-amine]: 310 nM.
`Cc1nn(-c2cc(Nc3c(Cl)c(-c4ccc(F)cc4F)nn3C)ncn2)c2ccccc12` [Example 49, N-[4-chloro-3-(2,4-difluorophenyl)-1-methyl-1H-pyrazol-5-yl]-6-(3-methyl-1H-indazol-1-yl)pyrimidin-4-amine] gave an IC50 of 310 nM.
`Cc1cc(C)n(-c2cc(Nc3c(Cl)c(-c4ccc(F)cc4F)nn3C)ncn2)n1` [Example 50, N-[4-chloro-3-(2,4-difluorophenyl)-1-methyl-1H-pyrazol-5-yl]-6-(3,5-dimethyl-1H-pyrazol-1-yl)pyrimidin-4-amine]: half-maximal inhibition (IC50) required 160 nM.
To `CCOC(=O)c1c(C)nn(-c2cc(Nc3n[nH]c(-c4ccccc4)c3Cl)ncn2)c1C` [Example 51, ethyl 1-{6-[(4-chloro-5-phenyl-1H-pyrazol-3-yl)amino]pyrimidin-4-yl}-3,5-dimethyl-1H-pyrazole-4-carboxylate] belongs 100 nM.
`Cc1cc(C)n(-c2cc(Nc3nn(C)c(-c4ccccc4)c3Cl)ncn2)n1` [Example 52, N-(4-chloro-1-methyl-5-phenyl-1H-pyrazol-3-yl)-6-(3,5-dimethyl-1H-pyrazol-1-yl)pyrimidin-4-amine] gave a half-maximal inhibitory concentration (IC50) of 83 nM.
Compound `Cc1nn(-c2cc(Nc3nn(C)c(-c4ccccc4)c3Cl)ncn2)c(C)c1Cl` [Example 53, 6-(4-chloro-3,5-dimethyl-1H-pyrazol-1-yl)-N-(4-chloro-1-methyl-5-phenyl-1H-pyrazol-3-yl)pyrimidin-4-amine] returned an IC50 of 11.3 nM.
In turn, `Cc1nn(-c2cc(Nc3n[nH]c(-c4ccccc4)c3Cl)ncn2)c(C)c1Cl` [Example 54, 6-(4-chloro-3,5-dimethyl-1H-pyrazol-1-yl)-N-(4-chloro-5-phenyl-1H-pyrazol-3-yl)pyrimidin-4-amine] yielded a half-inhibitory concentration (IC50) of 90.3 nM.
As for `Cc1cc(C)n(-c2cc(Nc3nn(C)c(-c4ccc(F)cc4F)c3Cl)ncn2)n1` [Example 55, N-[4-chloro-5-(2,4-difluorophenyl)-1-methyl-1H-pyrazol-3-yl]-6-(3,5-dimethyl-1H-pyrazol-1-yl)pyrimidin-4-amine], the IC50 worked out at 133 nM.
`Cc1nn(-c2cc(Nc3nn(C)c(-c4ccc(F)cc4F)c3Cl)ncn2)c(C)c1Cl` [Example 56, N-[4-chloro-5-(2,4-difluorophenyl)-1-methyl-1H-pyrazol-3-yl]-6-(4-chloro-3,5-dimethyl-1H-pyrazol-1-yl)pyrimidin-4-amine] came in with an IC50 of 20.5 nM.
`Cc1nn(-c2cc(Nc3nn(C)c(-c4ccc(F)cc4F)c3Cl)ncn2)c2ccccc12` [Example 57, N-[4-chloro-5-(2,4-difluorophenyl)-1-methyl-1H-pyrazol-3-yl]-6-(3-methyl-1H-indazol-1-yl)pyrimidin-4-amine]: the concentration for half-maximal inhibition (IC50) is 117 nM.

As a reminder, the IC50 is the point on the concentration scale where inhibition reaches its midpoint. The low end stands for greater potency in that assay, the high end for weaker potency in that assay.
